Source: patent publication US20220142959A1, “LEUCINE, ACETYL LEUCINE, AND RELATED ANALOGS FOR TREATING DISEASE” (priority 2019, published 2022)

What was measured:
TUNEL positive cells = assay: TUNEL assay on brain sections after CCI induced TBI; format: in vivo; details: injured mice fed with NALL vs vehicle fed TBI mice
Procedure: (§1) Controlled cortical impact (CCI) induced TBI was performed in male C57BL6/J mice (20-25 g). Briefly, after a 10-mm midline incision was made over the skull, the skin and fascia were retracted, and a 4-mm craniotomy was made on the central aspect of the left parietal bone of mice under surgical anesthesia (2-3% isoflurane evaporated in a gas mixture containing 70% N20 and 30% 02). Moderate injury was induced in the exposed brain by a custom microprocessor-controlled and compressed air driven pneumatic impactor of 3.5 mm diameter tip with the impact velocity of 6 m/s and a deformation depth of 2 mm.
(§2) N-Acetyl-L-Leucine (“NAL” or “NALL”) was dissolved in ethanol to prepare a 50 mg/ml solution which was then diluted in water to give a 10 mg/ml solution. About 0.25 ml of the NAL solution (10 mg/ml) was orally administered in mice at a […] (2.5 mg NAL/25 g mouse) via oral gavage each day after CCI induced TBI for 4 days. Mice were also fed with NAL at 0.5 mg/kg chow powder chow mixed with diet gel for up to 7 days after injury.
The level of α-fodrin cleavage products in NALL treated, vehicle treated sham, and TBI mouse cortices were determined by Western blot analysis and using the TUNEL assay to assess whether NALL treatment decreases cortical cell death after TBI. […]

[1] = tested on: rat model of an acute unilateral labyrinthectomy; details: activation of vestibulo-cerebellum, deactivation of posterolateral thalamus; cited from earlier work
LC3-II and p62/SQSTM1 = assay: Western blot of autophagy flux markers in cortex after CCI induced TBI; format: in vivo, mice
Procedure: as §1, §2
Around 5 mm tissue of ipsilateral cortex around the site of injury from TBI mice or the corresponding tissue of same volume around the same cortical region from sham mice were dissected and processed. […] Protein bands were detected using chemiluminiscence kit (Pierce, 34076) and visualized using Chemi-doc system (Bio-Rad). Band intensity was analyzed using Image Lab software (Bio-Rad) and normalized to loading control (β-Actin). […]
Autophagy is a lysosome dependent cellular degradation process that is disrupted due to lysosomal damage after TBI. […] Whether attenuation of cell death following NALL treatment in TBI mice is mediated through the restoration of autophagy flux was assessed.
The levels of LC3-II and p62/SQSTM1 in the cortical tissue lysates prepared from vehicle and NAL fed naïve and TBI mice were determined by western blot analysis. A decrease in the levels of LC3-II in the brain of NALL fed mice as compared to vehicle treated mice at day 1 after TBI was detected. […]

[2] = tested on: rat primary cortical neurons (NE and NG cultures); assay: Truncated tau and neuronal markers in neuron-enriched and neuron-glia cultures; format: cell-based
Procedure: FIG. 20 is eight Western blots of tau (5E2), synaptophysin and βIII-tubulin in rat primary cortical neurons (neuron-enriched (NE) and neuron-glia (NG) cultures) in the absence and presence of ADLL, ALL, ADL, DLL, LL, DL, and LLE (1 mM, 5 days).
The efficacy of ADLL, ALL, ADL, DLL, LL, DL, and LLE in reducing truncated tau levels in neuron-glia (NG) cultures was investigated. The results of this study are provided in FIGS. 20-24 One aim of this study was to determine whether ADLL, ALL, ADL, DLL, LL, DL, and LLE conferred intrinsic neuroprotection by sustaining neuronal function under conditions of cellular overgrowth, or whether they acted indirectly through the non-autonomous modulation of glial cells. Irrespective of whether the compounds acted directly or indirectly on neurons, preventing the generation of truncated tau confers beneficial effects to neuronal integrity.
Cultures were treated for five days (DIV 9-14) with 1 mM of ADLL, ALL, ADL, DLL, LL, DL, or LLE, and were subsequently assessed for a number of neuron-specific markers that could provide a readout on neuronal health: βIII-tubulin, full-length tau, truncated tau (antibody 5E2) and synaptophysin. ADLL, ALL, ADL, DLL, LL, DL, and LLE were well-tolerated in NE and NG cultures, as evidenced by consistently equal levels of synaptophysin and βIII-tubulin detected across untreated (control) and drug-treated samples (FIGS. 20, 23, and 24). None of ADLL, ALL, ADL, DLL, LL, DL, and LLE reduced basal levels of truncated tau in NG cultures at DIV14 (FIG. 20 and FIG. 22).

[3] = tested on: cerebellar Purkinje cells; assay: Purkinje cell survival in Npc1−/− mice; format: in vivo; details: 59 days of age, compared to Npc1−/− UT
Excerpt: FIG. 46 is an image showing cerebellar Purkinje cell loss progressing from anterior to posterior lobes and microglial activation in untreated Npc1^−/− mice and Npc1^−/− mice treated with ADLL, ALL, and ADL. Cerebellums were stained with calbindin-b (Purkinje cells) or CD68 (activated microglia).
FIG. 47 is a scatter graph showing Purkinje cell survival at 59 days of age in untreated Npc1^−/− mice and Npc1^−/− mice treated with ADLL, ALL, and ADL.
The combination of increased survival of neurons and a less inflammatory environment in the brain could improve brain function, quality of life, and delay the progression of disease in human subjects.

CC(=O)N[C@@H](CC(C)C)C(=O)O [ALL, acetyl-L-leucine]
TUNEL positive cells in brain sections (TUNEL positive cells): Lower levels | effect on postural compensation [1]: significant effect | p62/SQSTM1 level in the cortex (LC3-II and p62/SQSTM1; NALL fed vs vehicle treated mice after TBI): decrease | levels of LC3-II in the brain (LC3-II and p62/SQSTM1; NALL fed vs vehicle treated mice, day 1 after TBI): decrease | autophagy flux (LC3-II and p62/SQSTM1; mouse cortices after TBI): improves autophagy flux | tolerability (levels of synaptophysin and βIII-tubulin vs untreated control) ([2]; NE and NG cultures, 1 mM, five days (DIV 9-14)): well-tolerated | reduction of basal levels of truncated tau ([2]; NG cultures at DIV14, 1 mM, five days): None | Purkinje cell survival in any cerebellar lobules [3]: did not improve
